From article PMC12060420 (Cell Communication and Signaling : CCS, 2025) come the findings set out here.

The target of the assay is protein disulfide isomerase (PDI, PDIA1) (Homo sapiens, UniProt P07237). The experiment in a line: surface plasmon resonance. It is filed as binding.
Sequence of protein disulfide isomerase (PDI, PDIA1) (P07237 18-508): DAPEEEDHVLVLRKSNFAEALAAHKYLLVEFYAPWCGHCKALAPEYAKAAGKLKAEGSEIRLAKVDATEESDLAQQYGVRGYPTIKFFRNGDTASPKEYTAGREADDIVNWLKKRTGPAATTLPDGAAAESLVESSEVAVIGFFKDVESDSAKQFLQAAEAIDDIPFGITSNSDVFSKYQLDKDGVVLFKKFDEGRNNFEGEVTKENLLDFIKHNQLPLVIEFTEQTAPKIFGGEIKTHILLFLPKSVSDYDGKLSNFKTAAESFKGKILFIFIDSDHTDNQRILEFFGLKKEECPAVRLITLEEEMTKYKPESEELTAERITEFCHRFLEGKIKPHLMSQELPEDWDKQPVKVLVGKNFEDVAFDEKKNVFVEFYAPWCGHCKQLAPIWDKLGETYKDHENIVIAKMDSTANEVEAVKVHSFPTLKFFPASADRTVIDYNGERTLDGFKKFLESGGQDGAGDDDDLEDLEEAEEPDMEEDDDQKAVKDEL

Compound `Cc1c(-c2ccc(O)cc2)n(Cc2ccc(OCCN3CCCCCC3)cc2)c2ccc(O)cc12` [BAZ, bazedoxifene] returned a Kd of 3.3 nM.
